Laboratory results as given in patent US9656955B2, “Pyrrolidine derivatives, pharmaceutical compositions containing them, and their use in therapy” (AbbVie Deutschland GmbH & Co. KG, priority 2013, dated 2017).

What follows are compounds tested against human GlyT1c transporter (Homo sapiens (Human), UniProt P48067) (assay: Radioligand binding assays using recombinant CHO cell membranes expressing human GlyT1). Details: not given.
Chain of human GlyT1c transporter (P48067 whole entry): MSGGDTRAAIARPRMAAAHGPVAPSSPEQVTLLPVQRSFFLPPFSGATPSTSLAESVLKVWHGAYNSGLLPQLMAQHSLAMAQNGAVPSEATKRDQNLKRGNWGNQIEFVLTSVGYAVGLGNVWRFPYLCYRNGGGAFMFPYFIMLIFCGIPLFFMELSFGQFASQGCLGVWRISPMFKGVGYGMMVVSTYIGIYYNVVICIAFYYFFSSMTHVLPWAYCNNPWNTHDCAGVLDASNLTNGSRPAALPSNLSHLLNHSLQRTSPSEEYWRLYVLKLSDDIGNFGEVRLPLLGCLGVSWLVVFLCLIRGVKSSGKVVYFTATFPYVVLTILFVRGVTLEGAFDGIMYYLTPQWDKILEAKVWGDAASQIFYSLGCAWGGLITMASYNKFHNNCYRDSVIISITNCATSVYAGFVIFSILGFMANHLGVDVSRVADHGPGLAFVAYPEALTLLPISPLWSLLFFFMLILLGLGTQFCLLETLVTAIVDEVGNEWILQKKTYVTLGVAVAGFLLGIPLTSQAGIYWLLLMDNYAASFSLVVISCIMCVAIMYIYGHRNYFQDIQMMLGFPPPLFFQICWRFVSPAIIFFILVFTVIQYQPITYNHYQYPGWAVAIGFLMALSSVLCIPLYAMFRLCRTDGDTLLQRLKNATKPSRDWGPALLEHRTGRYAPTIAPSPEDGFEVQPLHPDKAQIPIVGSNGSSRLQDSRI

Ki	Structure (SMILES)
≤ 1 µM	Cn1cnc(S(=O)(=O)N2C[C@@H](Nc3cc(C(F)(F)F)ncn3)[C@H](C3CCCO3)C2)c1 (relative stereo) [Example 853, N-[Trans-1-[(1-methyl-1H-imidazol-4-yl)sulfonyl]-4-(tetrahydrofuran-2-yl)pyrrolidin-3-yl]-6-(trifluoromethyl)pyrimidin-4-amine]

Same assay, conditions: radioligand binding, human GlyT1c transporter-expressing CHO cell membranes

Structure (SMILES)	Ki
Cc1cc(N[C@H]2CN(S(=O)(=O)c3cn(C)cn3)C[C@@H]2c2ccccc2)ncc1F [Example 574, 5-fluoro-4-methyl-N-{(3R,4S)-1-[(1-methyl-1H-imidazol-4-yl)sulfonyl]-4-phenylpyrrolidin-3-yl}pyridin-2-amine]	≤ 0.1 µM
Cn1cnc(S(=O)(=O)N2C[C@H](NC(=O)c3ccc(Cl)nn3)[C@@H](c3ccccc3)C2)c1 [Example 419, 6-chloro-N-{(3R,4S)-1-[(1-methyl-1H-imidazol-4-yl)sulfonyl]-4-phenylpyrrolidin-3-yl}pyridazine-3-carboxamide]	≥ 10 µM
CC(C)COC(=O)N[C@H]1CN(S(=O)(=O)c2cn(C)cn2)C[C@@H]1c1ccccc1 [Example 543, 2-methylpropyl {(3R,4S)-1-[(1-methyl-1H-imidazol-4-yl)sulfonyl]-4-phenylpyrrolidin-3-yl}carbamate]	≤ 10 µM
Cn1cnc(S(=O)(=O)N2C[C@H](NCc3nc(-c4ccc(F)cc4)cs3)[C@@H](c3ccccc3)C2)c1 [Example 460, (3R,4S)—N-{[4-(4-fluorophenyl)-1,3-thiazol-2-yl]methyl}-1-[(1-methyl-1H-imidazol-4-yl)sulfonyl]-4-phenylpyrrolidin-3-amine]	≤ 10 µM
Cn1cnc(S(=O)(=O)N2C[C@H](NCC3CCOC(C)(C)C3)[C@@H](c3ccccc3)C2)c1 (stereo partly drawn) [Example 557, (3R,4S)—N-[(2,2-dimethyltetrahydro-2H-pyran-4-yl)methyl]-1-[(1-methyl-1H-imidazol-4-yl)sulfonyl]-4-phenylpyrrolidin-3-amine]	≤ 10 µM
COC(=O)c1sccc1S(=O)(=O)N1CC(Nc2ccc(F)c(F)c2)C(c2ccccc2)C1 (stereo not drawn) [Example 489, methyl 3-({3-[(3,4-difluorophenyl)amino]-4-phenylpyrrolidin-1-yl}sulfonyl)thiophene-2-carboxylate]	≤ 10 µM
Cn1cnc(S(=O)(=O)N2C[C@H](NC(=O)CCC(C)(F)F)[C@@H](c3ccc(F)cc3)C2)c1 [Example 754, 4,4-difluoro-N-{(3R,4S)-4-(4-fluorophenyl)-1-[(1-methyl-1H-imidazol-4-yl)sulfonyl]pyrrolidin-3-yl}pentanamide]	≤ 10 µM
COC(=O)c1ccc(S(=O)(=O)N2CC(Nc3ccc(F)c(F)c3)C(c3ccccc3)C2)n1C (stereo not drawn) [Example 504, methyl 5-({3-[(3,4-difluorophenyl)amino]-4-phenylpyrrolidin-1-yl}sulfonyl)-1-methyl-1H-pyrrole-2-carboxylate]	≤ 10 µM
Cn1cnc(S(=O)(=O)N2C[C@H](Nc3cc(-c4ccc(Cl)cc4)ncn3)[C@@H](c3ccc(F)cc3)C2)c1 [Example 730, 6-(4-chlorophenyl)-N-{(3R,4S)-4-(4-fluorophenyl)-1-[(1-methyl-1H-imidazol-4-yl)sulfonyl]pyrrolidin-3-yl}pyrimidin-4-amine]	≤ 0.01 µM
Cn1cnc(S(=O)(=O)N2C[C@H](NC(=O)c3cnc(C(F)(F)F)cn3)[C@@H](c3ccccc3)C2)c1 [Example 414, N-{(3R,4S)-1-[(1-methyl-1H-imidazol-4-yl)sulfonyl]-4-phenylpyrrolidin-3-yl}-5-(trifluoromethyl)pyrazine-2-carboxamide]	≤ 10 µM
Cn1cnc(S(=O)(=O)N2CC(c3ccc(F)cc3)C(O)(Cc3ccccc3)C2)c1 (stereo not drawn) [Example 382, 3-benzyl-4-(4-fluorophenyl)-1-[(1-methyl-1H-imidazol-4-yl)sulfonyl]pyrrolidin-3-ol]	≤ 0.1 µM
CCCCOc1cc(N[C@H]2CN(S(=O)(=O)c3cn(C)cn3)C[C@@H]2c2ccccc2)ncn1 [Example 623, 6-butoxy-N-{(3R,4S)-1-[(1-methyl-1H-imidazol-4-yl)sulfonyl]-4-phenylpyrrolidin-3-yl}pyrimidin-4-amine]	≤ 0.1 µM
Cn1cnc(S(=O)(=O)N2C[C@H](Nc3cccc(C4CCNCC4)c3)[C@@H](c3ccccc3)C2)c1 [Example 777, (3R,4S)-1-[(1-methyl-1H-imidazol-4-yl)sulfonyl]-4-phenyl-N-[3-(piperidin-4-yl)phenyl]pyrrolidin-3-amine]	≥ 10 µM
Cc1nn(C2CCCC2)cc1S(=O)(=O)N1CC(Nc2ccc(F)c(F)c2)C(c2ccccc2)C1 (stereo not drawn) [Example 479, 1-[(1-cyclopentyl-3-methyl-1H-pyrazol-4-yl)sulfonyl]-N-(3,4-difluorophenyl)-4-phenylpyrrolidin-3-amine]	> 10 µM
Cc1ccc(-c2cc(N[C@H]3CN(S(=O)(=O)c4cn(C)cn4)C[C@@H]3c3ccc(F)cc3)ncn2)cc1 [Example 725, N-{(3R,4S)-4-(4-fluorophenyl)-1-[(1-methyl-1H-imidazol-4-yl)sulfonyl]pyrrolidin-3-yl}-6-(4-methylphenyl)pyrimidin-4-amine]	≤ 0.01 µM
Cc1cc(S(=O)(=O)N2CC(Nc3ccc(F)c(F)c3)C(c3ccccc3)C2)c(C)o1 (stereo not drawn) [Example 488, N-(3,4-difluorophenyl)-1-[(2,5-dimethylfuran-3-yl)sulfonyl]-4-phenylpyrrolidin-3-amine]	≤ 10 µM

Structure (SMILES)	Ki
Cn1cnc(S(=O)(=O)N2C[C@H](NCc3cccc4cncn34)[C@@H](c3ccccc3)C2)c1 [Example 560, (3R,4S)—N-(imidazo[1,5-a]pyridin-5-ylmethyl)-1-[(1-methyl-1H-imidazol-4-yl)sulfonyl]-4-phenylpyrrolidin-3-amine]	≥ 10 µM
Cn1cnc(S(=O)(=O)N2C[C@H](Nc3cc(OC4CCC4)ncn3)[C@@H](c3ccc(F)cc3)C2)c1 [Example 719, 6-(cyclobutyloxy)-N-{(3R,4S)-4-(4-fluorophenyl)-1-[(1-methyl-1H-imidazol-4-yl)sulfonyl]pyrrolidin-3-yl}pyrimidin-4-amine]	≤ 0.1 µM
Cn1cnc(S(=O)(=O)N2CC(Nc3nnccc3C(F)(F)F)C(c3ccc(F)cc3)C2)c1 (stereo not drawn) [Example 384, N-{4-(4-fluorophenyl)-1-[(1-methyl-1H-imidazol-4-yl)sulfonyl]pyrrolidin-3-yl}-4-(trifluoromethyl)pyridazin-3-amine]	≤ 10 µM
Cn1ccc(S(=O)(=O)N2CC(Nc3ccc(F)c(F)c3)C(c3ccccc3)C2)n1 (stereo not drawn) [Example 502, N-(3,4-difluorophenyl)-1-[(1-methyl-1H-pyrazol-3-yl)sulfonyl]-4-phenylpyrrolidin-3-amine]	≤ 10 µM
Cn1cnc(S(=O)(=O)N2C[C@H](Nc3cc(OCC(F)(F)F)c(Cl)cn3)[C@@H](c3ccccc3)C2)c1 [Example 808, 5-chloro-N-{(3R,4S)-1-[(1-methyl-1H-imidazol-4-yl)sulfonyl]-4-phenylpyrrolidin-3-yl}-4-(2,2,2-trifluoroethoxy)pyridin-2-amine]	≤ 0.01 µM
Cc1cc(S(=O)(=O)N2CC(Nc3ccc(F)c(F)c3)C(c3ccccc3)C2)n(C)n1 (stereo not drawn) [Example 482, N-(3,4-difluorophenyl)-1-[(1,3-dimethyl-1H-pyrazol-5-yl)sulfonyl]-4-phenylpyrrolidin-3-amine]	≤ 10 µM
Cn1cnc(S(=O)(=O)N2C[C@H](Nc3cnc(C4CCC4)cn3)[C@@H](c3ccccc3)C2)c1 [Example 411, 5-cyclobutyl-N-{(3R,4S)-1-[(1-methyl-1H-imidazol-4-yl)sulfonyl]-4-phenylpyrrolidin-3-yl}pyrazin-2-amine]	≤ 10 µM
Cn1cnc(S(=O)(=O)N2C[C@H](NCc3ccc(C(F)(F)F)cc3)[C@@H](c3ccccc3)C2)c1 [Example 398, (3R,4S)-1-[(1-methyl-1H-imidazol-4-yl)sulfonyl]-4-phenyl-N-[4-(trifluoromethyl)benzyl]pyrrolidin-3-amine]	≤ 0.01 µM
Cn1cnc(S(=O)(=O)N2C[C@H](NCCCC3CC3)[C@@H](c3ccccc3)C2)c1 [Example 573, (3R,4S)—N-(3-cyclopropylpropyl)-1-[(1-methyl-1H-imidazol-4-yl)sulfonyl]-4-phenylpyrrolidin-3-amine]	≤ 0.1 µM
CCCc1ccc(CN[C@H]2CN(S(=O)(=O)c3cn(C)cn3)C[C@@H]2c2ccccc2)o1 [Example 428, (3R,4S)-1-[(1-methyl-1H-imidazol-4-yl)sulfonyl]-4-phenyl-N-[(5-propylfuran-2-yl)methyl]pyrrolidin-3-amine]	≤ 0.1 µM
Cn1cnc(S(=O)(=O)N2C[C@H](Nc3ccnc(N4CCOCC4)n3)[C@@H](c3ccccc3)C2)c1 [Example 420, N-{(3R,4S)-1-[(1-methyl-1H-imidazol-4-yl)sulfonyl]-4-phenylpyrrolidin-3-yl}-2-(morpholin-4-yl)pyrimidin-4-amine]	≤ 10 µM
Cn1cnc(S(=O)(=O)N2CC(Nc3cccc(C(F)(F)F)c3)C(C3CCCO3)C2)c1 (stereo not drawn) [Example 603, 1-[(1-methyl-1H-imidazol-4-yl)sulfonyl]-4-(tetrahydrofuran-2-yl)-N-[3-(trifluoromethyl)phenyl]pyrrolidin-3-amine]	≤ 0.1 µM
CC(C)N1CCC(CN[C@H]2CN(S(=O)(=O)c3cn(C)cn3)C[C@@H]2c2ccccc2)CC1 [Example 459, (3R,4S)-1-[(1-methyl-1H-imidazol-4-yl)sulfonyl]-4-phenyl-N-{[1-(propan-2-yl)piperidin-4-yl]methyl}pyrrolidin-3-amine]	≤ 10 µM
CCCCNC(=O)[C@@H]1CN(S(=O)(=O)c2cn(C)cn2)C[C@H]1c1ccc(F)cc1 [Example 581, (3S,4R)—N-butyl-4-(4-fluorophenyl)-1-[(1-methyl-1H-imidazol-4-yl)sulfonyl]pyrrolidine-3-carboxamide]	≤ 0.1 µM
Cn1cnc(S(=O)(=O)N2C[C@H](Nc3cc(OCC4CNC4)ncn3)[C@@H](c3ccc(F)cc3)C2)c1 [Example 778, 6-(azetidin-3-ylmethoxy)-N-{(3R,4S)-4-(4-fluorophenyl)-1-[(1-methyl-1H-imidazol-4-yl)sulfonyl]pyrrolidin-3-yl}pyrimidin-4-amine]	≥ 10 µM
Cn1cnc(S(=O)(=O)N2C[C@H](Nc3cc(-c4ccc(F)cc4)ncn3)[C@@H](c3ccc(F)cc3)C2)c1 [Example 728, 6-(4-fluorophenyl)-N-{(3R,4S)-4-(4-fluorophenyl)-1-[(1-methyl-1H-imidazol-4-yl)sulfonyl]pyrrolidin-3-yl}pyrimidin-4-amine]	≤ 0.01 µM
